Several values for one entry are separate records, joined by “and”; a condition that tells them apart may be missing. Identical values can stand only once. Records with an inconclusive call do not appear. Residues, ends and D or L forms follow the SMILES beside them. *: point of attachment. Trt = c1ccc(C(c2ccccc2)(c2ccccc2)*)cc1; Cbz = O=C(OCc1ccccc1)*; Bn = c1ccc(C*)cc1; βAla = NCCC(=O)O
Test system: CD8F1 mice, subcutaneous mammary adenocarcinoma, T/C%
Test: NCI In Vivo Anticancer Drug Screen. Data for tumor model Mammary Adenocarcinoma CD8F1 (subcutaneous) in CD8F1
Conditions: higher = larger tumour
Procedure, shortened: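 Ratio of treated to vehicle-control outcome, based on either survival or tumor size, in mice bearing transplantable tumors given the test compound.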

[1] = endpoint: mean tumor weight, dose: 50.0 mg/kg/injection, schedule: Q07DX004 (ip), vehicle: saline
[2] = endpoint: median tumor weight (est.), dose: 50.0 mg/kg/injection, schedule: Q07DX005 (ip), vehicle: saline
[3] = endpoint: median tumor weight (est.), dose: 6.25 mg/kg/injection, schedule: Q07DX005 (ip), vehicle: saline with Tween-80
[4] = endpoint: median tumor weight (est.), dose: 12.5 mg/kg/injection, schedule: Q07DX005 (ip), vehicle: saline with Tween-80

Compound: CC(=O)OCC1OC(OC2=C(CC=C(C)C)C(=O)c3ccccc3C2=O)C(OC(C)=O)C(OC(C)=O)C1OC(C)=O (configuration not stated)
- T/C (endpoint: median tumor weight (est.), dose: 12.5 mg/kg/injection, schedule: Q07DX005 (ip), vehicle: Klucel (hydroxypropylcellulose) (HPC)): 75 % of control and 98 % of control
- T/C (endpoint: median tumor weight (est.), dose: 25.0 mg/kg/injection, schedule: Q07DX005 (ip), vehicle: Klucel (hydroxypropylcellulose) (HPC)): 69 % of control
- T/C (endpoint: median tumor weight (est.), dose: 100.0 mg/kg/injection, schedule: Q07DX005 (ip), vehicle: Klucel (hydroxypropylcellulose) (HPC)): 113 % of control
- T/C (endpoint: median tumor weight (est.), dose: 200.0 mg/kg/injection, schedule: Q07DX005 (ip), vehicle: Klucel (hydroxypropylcellulose) (HPC)): 107 % of control
- T/C (endpoint: median tumor weight (est.), dose: 400.0 mg/kg/injection, schedule: Q07DX005 (ip), vehicle: Klucel (hydroxypropylcellulose) (HPC)): 79 % of control

Compound: O=P1(N(CCCl)CCCl)NCCCO1 (configuration not stated)
- T/C (endpoint: mean tumor weight, dose: 20.0 mg/kg/injection, schedule: Q01DX018 (ip), vehicle: saline): 8 % of control
- T/C (endpoint: mean tumor weight, dose: 37.5 mg/kg/injection, schedule: Q07DX004 (ip), vehicle: saline): 3 % of control
- T/C (endpoint: mean tumor weight, dose: 40.0 mg/kg/injection, schedule: Q01DX009 (ip), vehicle: saline): 4 % of control and 9 % of control
- T/C [1]: 3 % of control
- T/C (endpoint: median tumor weight (est.), dose: 10.0 mg/kg/injection, schedule: Q01DX005 (ip), vehicle: saline): 55 % of control
- T/C (endpoint: median tumor weight (est.), dose: 20.0 mg/kg/injection, schedule: Q01DX005 (ip), vehicle: saline): 1 % of control
- T/C (endpoint: median tumor weight (est.), dose: 25.0 mg/kg/injection, schedule: Q01DX005 (ip), vehicle: saline): 80 % of control
- T/C (endpoint: median tumor weight (est.), dose: 37.5 mg/kg/injection, schedule: Q01DX005 (ip), vehicle: saline): 17 % of control
- T/C (endpoint: median tumor weight (est.), dose: 37.5 mg/kg/injection, schedule: Q04DX005 (ip), vehicle: saline): 60 % of control
- T/C (endpoint: median tumor weight (est.), dose: 40.0 mg/kg/injection, schedule: Q01DX005 (ip), vehicle: saline): 8 % of control
- T/C (endpoint: median tumor weight (est.), dose: 50.0 mg/kg/injection, schedule: Q01DX005 (ip), vehicle: saline): 15 % of control
- T/C (endpoint: median tumor weight (est.), dose: 50.0 mg/kg/injection, schedule: Q04DX005 (ip), vehicle: saline): 11 % of control
- T/C [2]: 27 % of control
- T/C (endpoint: median tumor weight (est.), dose: 67.0 mg/kg/injection, schedule: Q07DX005 (ip), vehicle: saline): 6 % of control
- T/C (endpoint: median tumor weight (est.), dose: 75.0 mg/kg/injection, schedule: Q01DX005 (ip), vehicle: saline): 1 % of control
- T/C (endpoint: median tumor weight (est.), dose: 75.0 mg/kg/injection, schedule: Q04DX005 (ip), vehicle: saline): 1 % of control
- T/C (endpoint: median tumor weight (est.), dose: 75.0 mg/kg/injection, schedule: Q07DX005 (ip), vehicle: saline): 5 % of control
- T/C (endpoint: median tumor weight (est.), dose: 80.0 mg/kg/injection, schedule: Q01DX005 (ip), vehicle: saline): 2 % of control
- T/C (endpoint: median tumor weight (est.), dose: 100.0 mg/kg/injection, schedule: Q07DX005 (ip), vehicle: saline): 1 % of control
- T/C (endpoint: median tumor weight (est.), dose: 111.0 mg/kg/injection, schedule: Q01DX001 (ip), vehicle: saline): 32 % of control
- T/C (endpoint: median tumor weight (est.), dose: 167.0 mg/kg/injection, schedule: Q01DX001 (ip), vehicle: saline): 34 % of control
- T/C (endpoint: median tumor weight (est.), dose: 250.0 mg/kg/injection, schedule: Q01DX001 (ip), vehicle: saline): 9 % of control
- T/C (endpoint: median tumor weight change, dose: 25.0 mg/kg/injection, schedule: Q01DX001 (ip), vehicle: saline): 91 % of control
- T/C (endpoint: median tumor weight change, dose: 50.0 mg/kg/injection, schedule: Q01DX001 (ip), vehicle: saline): 42 % of control and 62 % of control
- T/C (endpoint: median tumor weight change, dose: 100.0 mg/kg/injection, schedule: Q01DX001 (ip), vehicle: saline): 5 % of control and 29 % of control
- T/C (endpoint: median tumor weight change, dose: 400.0 mg/kg/injection, schedule: Q01DX001 (ip), vehicle: saline): -56 % of control

Compound: c1ccc2c(NCCCCCCCCNc3c4ccccc4nc4ccccc34)c3ccccc3nc2c1
- T/C (endpoint: median tumor weight (est.), dose: 5.0 mg/kg/injection, schedule: Q07DX005 (ip), vehicle: Klucel (hydroxypropylcellulose) (HPC)): 72 % of control
- T/C (endpoint: median tumor weight (est.), dose: 10.0 mg/kg/injection, schedule: Q07DX005 (ip), vehicle: Klucel (hydroxypropylcellulose) (HPC)): 56 % of control
- T/C (endpoint: median tumor weight (est.), dose: 20.0 mg/kg/injection, schedule: Q07DX005 (ip), vehicle: Klucel (hydroxypropylcellulose) (HPC)): 57 % of control
- T/C (endpoint: median tumor weight (est.), dose: 40.0 mg/kg/injection, schedule: Q07DX005 (ip), vehicle: Klucel (hydroxypropylcellulose) (HPC)): 46 % of control

Compound: O=Cc1ccc(O)c(O)c1
- T/C (endpoint: median tumor weight (est.), dose: 100.0 mg/kg/injection, schedule: Q07DX005 (ip), vehicle: suspension in saline): 160 % of control

Compound: CC(C)(C)N1CC1CNC(=O)C(=O)NCC1CN1C(C)(C)C (configuration not stated)
- T/C (endpoint: median tumor weight change, dose: 15.6 mg/kg/injection, schedule: Q01DX001 (ip), vehicle: saline with Tween-80): 50 % of control
- T/C (endpoint: median tumor weight change, dose: 15.62 mg/kg/injection, schedule: Q01DX001 (ip), vehicle: saline with Tween-80): 30 % of control
- T/C (endpoint: median tumor weight change, dose: 31.25 mg/kg/injection, schedule: Q01DX001 (ip), vehicle: saline with Tween-80): 30 % of control and 37 % of control

Compound: NC1(C(=O)O)CCCC1
- T/C (endpoint: mean tumor weight, dose: 5.0 mg/kg/injection, schedule: Q01DX009 (ip), vehicle: saline): 89 % of control
- T/C (endpoint: mean tumor weight, dose: 10.0 mg/kg/injection, schedule: Q01DX009 (ip), vehicle: saline): 30 % of control
- T/C (endpoint: mean tumor weight, dose: 12.5 mg/kg/injection, schedule: Q07DX005 (ip), vehicle: saline): 40 % of control
- T/C (endpoint: mean tumor weight, dose: 12.5 mg/kg/injection, schedule: Q07DX007 (ip), vehicle: saline): 104 % of control
- T/C (endpoint: mean tumor weight, dose: 20.0 mg/kg/injection, schedule: Q01DX009 (ip), vehicle: saline): 5 % of control
- T/C (endpoint: mean tumor weight, dose: 25.0 mg/kg/injection, schedule: Q07DX004 (ip), vehicle: saline): 81 % of control
- T/C (endpoint: mean tumor weight, dose: 25.0 mg/kg/injection, schedule: Q07DX005 (ip), vehicle: saline): 122 % of control
- T/C (endpoint: mean tumor weight, dose: 25.0 mg/kg/injection, schedule: Q07DX007 (ip), vehicle: saline): 123 % of control
- T/C (endpoint: mean tumor weight, dose: 25.0 mg/kg/injection, schedule: Q07DX008 (ip), vehicle: saline): 119 % of control
- T/C [1]: 6 % of control
- T/C (endpoint: mean tumor weight, dose: 50.0 mg/kg/injection, schedule: Q07DX005 (ip), vehicle: saline): 9 % of control
- T/C (endpoint: mean tumor weight, dose: 50.0 mg/kg/injection, schedule: Q07DX007 (ip), vehicle: saline): 5 % of control
- T/C (endpoint: mean tumor weight, dose: 50.0 mg/kg/injection, schedule: Q07DX008 (ip), vehicle: saline): 43 % of control
- T/C (endpoint: median tumor weight (est.), dose: 25.0 mg/kg/injection, schedule: Q07DX005 (ip), vehicle: saline): 39 % of control
- T/C [2]: 28 % of control

Compound: CCC12C[N+]3([O-])CCc4c([nH]c5ccccc45)C(C(=O)OC)(c4cc5c(cc4OC)N(C)C4C(O)(C(=O)OC)C(OC(C)=O)C6(CC)C=CCN7CCC54C76)CC(C3)C1O2 (configuration not stated)
- T/C (endpoint: median tumor weight change, dose: 6.25 mg/kg/injection, schedule: Q01DX001 (ip), vehicle: water): 199 % of control
- T/C (endpoint: median tumor weight change, dose: 12.5 mg/kg/injection, schedule: Q01DX001 (ip), vehicle: water): 73 % of control
- T/C (endpoint: median tumor weight change, dose: 25.0 mg/kg/injection, schedule: Q01DX001 (ip), vehicle: water): 87 % of control
- T/C (endpoint: median tumor weight change, dose: 50.0 mg/kg/injection, schedule: Q01DX001 (ip), vehicle: water): 92 % of control
- T/C (endpoint: median tumor weight change, dose: 100.0 mg/kg/injection, schedule: Q01DX001 (ip), vehicle: water): 81 % of control

Compound: COC1=CC(=O)C(OC)=C(OC)C1=O
- T/C [3]: 63 % of control
- T/C [4]: 106 % of control
- T/C (endpoint: median tumor weight (est.), dose: 25.0 mg/kg/injection, schedule: Q07DX005 (ip), vehicle: saline with Tween-80): 90 % of control
- T/C (endpoint: median tumor weight (est.), dose: 50.0 mg/kg/injection, schedule: Q07DX005 (ip), vehicle: saline with Tween-80): 96 % of control
- T/C (endpoint: median tumor weight (est.), dose: 100.0 mg/kg/injection, schedule: Q07DX005 (ip), vehicle: saline with Tween-80): 74 % of control

Compound: Cc1cccc(-[n+]2noc(N)n2)c1
- T/C (endpoint: median tumor weight change, dose: 62.0 mg/kg/injection, schedule: Q01DX001 (ip), vehicle: water): 80 % of control
- T/C (endpoint: median tumor weight change, dose: 125.0 mg/kg/injection, schedule: Q01DX001 (ip), vehicle: water): 51 % of control

Compound: O=c1ccc2ccccc2o1
- T/C (endpoint: median tumor weight change, dose: 125.0 mg/kg/injection, schedule: Q01DX001 (ip), vehicle: Klucel (hydroxypropylcellulose) (HPC)): 90 % of control

Compound: CC(Cc1ccc(O)c(O)c1)C(C)Cc1ccc(O)c(O)c1 (configuration not stated)
- T/C (endpoint: median tumor weight change, dose: 500.0 mg/kg/injection, schedule: Q01DX001 (ip), vehicle: saline): 123 % of control
- T/C (endpoint: median tumor weight change, dose: 1000.0 mg/kg/injection, schedule: Q01DX001 (ip), vehicle: saline): 57 % of control

Compound: COC(=O)C(CSC(c1ccccc1)(c1ccccc1)c1ccccc1)NC(=O)C(CSCc1ccccc1)NC(=O)CCNC(=O)OCc1ccccc1 (configuration not stated) ({Cbz-βAla}-Cys(Bn)-Cys(Trt)-OMe; configuration not given here)
- T/C (endpoint: median tumor weight change, dose: 250.0 mg/kg/injection, schedule: Q01DX001 (ip), vehicle: Klucel (hydroxypropylcellulose) (HPC)): 107 % of control
- T/C (endpoint: median tumor weight change, dose: 500.0 mg/kg/injection, schedule: Q01DX001 (ip), vehicle: Klucel (hydroxypropylcellulose) (HPC)): 95 % of control
- T/C (endpoint: median tumor weight change, dose: 1000.0 mg/kg/injection, schedule: Q01DX001 (ip), vehicle: Klucel (hydroxypropylcellulose) (HPC)): 90 % of control
- T/C (endpoint: median tumor weight change, dose: 2000.0 mg/kg/injection, schedule: Q01DX001 (ip), vehicle: Klucel (hydroxypropylcellulose) (HPC)): 84 % of control

Compound: C1CN2CCC1CC2
- T/C [3]: 111 % of control
- T/C [4]: 77 % of control

Compound: O=C(O)C(O)C(O)C1[O][Sb][O]C1C(=O)O (configuration not stated)
- T/C (endpoint: median tumor weight change, dose: 31.0 mg/kg/injection, schedule: Q01DX001 (ip), vehicle: saline): 115 % of control
- T/C (endpoint: median tumor weight change, dose: 62.0 mg/kg/injection, schedule: Q01DX001 (ip), vehicle: saline): 93 % of control
